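96-well plates; 48 h exposure; 5 concentrations. Endpoints by linear interpolation between flanking doses. Not reached: highest tested concentration assigned. GI50 = concentration required for 50% inhibition of growth.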 The source made the active and inactive calls. Cut-off read from the data, not from the text of the source: active = GI50 up to about 1.1 µM and inactive = higher.

Experiment in all cases: NCI tumour cell line growth inhibition, 48 h
For assay [1], the system named is SF-295.
Assay [2] deals with A498.
In assay [3] the test system is OVCAR-4.
Assay [4] deals with ACHN.
In assay [5] the test system is A549.
The subject of assay [6] is NCI-H23.
The test system of assay [7] is HL-60.
In assay [8] the test system is K562.
The test system of assay [9] is NCI-H522.
Assay [10] deals with OVCAR-3.
Assay [11] deals with TK-10.
In assay [12] the test system is RXF 393.
Assay [13] deals with HCT-116.
Assay [14] deals with SF-539.
Assay [15] deals with COLO 205.
Assay [16] deals with MDA-MB-435.
For assay [17], the system named is NCI/ADR-RES.
Assay [18] has as its system SN12C.
Assay [19] deals with U-251.
The test system of assay [20] is OVCAR-8.

Regarding `COC(=O)CCCCC/C(=C\C(=O)C(Cl)(Cl)Cl)OC`, the GI50 in [1] is 43.3 µM (inactive); in assay [2], 40.8 µM (inactive); in assay [3], 19.5 µM (inactive); in assay [4] it was 39.7 µM (inactive); in assay [5] it was 45.6 µM (inactive); in [6], 31.8 µM (inactive). Moreover, the GI50 in [7] was 22.3 µM (inactive); in [8], 26.8 µM (inactive); in [9], 16.6 µM (inactive); in [10], 26.6 µM (inactive); in assay [11] it was 29.4 µM (inactive); in assay [12], 16.7 µM (inactive). Moreover, the GI50 in assay [13] was 20.2 µM (inactive); in assay [14], 18.6 µM (inactive); in assay [15], 26.5 µM (inactive); in assay [16] it was 22.9 µM (inactive); in [17], 30.5 µM (inactive); in assay [18], 33.5 µM (inactive). The values for the GI50 in assay [19] and in [20] were 26.4 µM (inactive) and 25.4 µM (inactive), respectively.
In the case of `CCCCCCCc1c(Cl)nc(Cl)nc1Cl`, the GI50 was 16.9 µM (inactive) in assay [1]; 20.1 µM (inactive) in assay [2]; 2.87 µM (inactive) in assay [3]; 8.61 µM (inactive) in assay [4]; 16.9 µM (inactive) in assay [5]; 3.72 µM (inactive) in [6]. The GI50 in assay [7] is 2.45 µM (inactive); in assay [8], 2.06 µM (inactive); in assay [9], 1.74 µM (inactive); in assay [10] it was 6.35 µM (inactive); in assay [11] it was 13.6 µM (inactive); in [12], 2.47 µM (inactive). The GI50 was 2.63 µM (inactive) in assay [13]; 9.82 µM (inactive) in assay [14]; 5.25 µM (inactive) in assay [15]; 2.65 µM (inactive) in assay [16]; 4.26 µM (inactive) in assay [17]; 2.05 µM (inactive) in [18]. The GI50 is 4.89 µM (inactive) in [19] and 2.36 µM (inactive) in [20].
`Cc1ncc(CO)c(CN)c1O`: the GI50 in [1], in assay [2], in assay [3], in assay [4], in assay [5] and in assay [6] was > 100 µM (inactive) each time. In addition, the GI50 in assay [7] was 41.9 µM (inactive); in [8], > 100 µM (inactive); in assay [9] it was > 100 µM (inactive); in assay [10], > 100 µM (inactive); in assay [11], > 100 µM (inactive); in [12], > 100 µM (inactive). The GI50 in assay [13], in [14], in [15], in assay [16], in assay [17] and in assay [18] was > 100 µM (inactive) each time. Further, the GI50 in assay [19] and in assay [20] was > 100 µM (inactive) each time.
`O=c1[nH]nc(Cc2ccc(Cl)cc2)n1O`: the GI50 in assay [1], in assay [2], in [3], in assay [4], in assay [5] and in [6] was > 100 µM (inactive) each time. For the same compound, the GI50 in assay [7], in assay [8], in assay [9], in assay [10], in assay [11] and in [12] was > 100 µM (inactive) throughout. In addition, the GI50 in assay [13], in assay [14], in assay [15], in assay [16], in assay [17] and in [18] was > 100 µM (inactive) throughout. The GI50 in assay [19] and in assay [20] was > 100 µM (inactive) throughout.
As to `Cc1cc(C)n(CN(Cn2nc(C)cc2C)c2ccc(N(Cn3nc(C)cc3C)Cn3nc(C)cc3C)cc2)n1`, the GI50 is 30.8 µM (inactive) in assay [1]; 22.2 µM (inactive) in [2]; 17.2 µM (inactive) in assay [3]; 17.3 µM (inactive) in [4]; 28 µM (inactive) in assay [5]; 21.2 µM (inactive) in assay [6]. Besides, the GI50 in assay [7] is 30.5 µM (inactive); in assay [8] it was 18.7 µM (inactive); in [9], 20.2 µM (inactive); in assay [10], 25.5 µM (inactive); in assay [11] it was 29.9 µM (inactive); in assay [12], 20 µM (inactive). Moreover, the GI50 is 17.5 µM (inactive) in [13]; 18.1 µM (inactive) in assay [14]; 17.7 µM (inactive) in assay [15]; 17.7 µM (inactive) in assay [16]; 19.1 µM (inactive) in [17]; 27.4 µM (inactive) in [18]. In addition, the GI50 was 27.9 µM (inactive) in [19] and 27.4 µM (inactive) in [20].
Take `[O-]c1c[n+](CCCC[n+]2cc([O-])on2)no1`: the GI50 in [1], in [2], in assay [3], in assay [4], in assay [5] and in assay [6] was > 100 µM (inactive) throughout. For the same compound, the GI50 in [7], in assay [8], in assay [9], in [10], in assay [11] and in assay [12] was > 100 µM (inactive) each time. For the same compound, the GI50 in assay [13], in [14], in assay [15], in [16], in [17] and in [18] was > 100 µM (inactive) each time. Further, the GI50 in assay [19] and in [20] was > 100 µM (inactive) in each case.
`COC(=O)/C=C\C(C#N)(C#N)/N=C/c1ccc(C)s1`: the GI50 in assay [1] was 17.8 µM (inactive); in assay [2] it was 20.3 µM (inactive); in [3], 3.78 µM (inactive); in assay [4], 1.67 µM (inactive); in [5], 18.4 µM (inactive); in assay [6], 2.23 µM (inactive). Moreover, the GI50 in [7] is 2.29 µM (inactive); in [8], 0.998 µM (active); in assay [9] it was 0.713 µM (active); in [10] it was 3.94 µM (inactive); in [11] it was 1.97 µM (inactive); in assay [12] it was 1.46 µM (inactive). The GI50 in assay [13] is 1.32 µM (inactive); in [14], 4.63 µM (inactive); in [15], 1.43 µM (inactive); in [16], 2.47 µM (inactive); in assay [17], 5.92 µM (inactive); in assay [18], 2.29 µM (inactive). Moreover, the GI50 was 12.4 µM (inactive) in assay [19] and 3.69 µM (inactive) in assay [20].

The record behind these values is ChEMBL document CHEMBL1201862, “PubChem BioAssay data set” (2004).
